# Paper PMC12022909, “A Multicomponent Reaction-Based Platform Opens New Avenues in Aryl Hydrocarbon Receptor Modulation” (ACS Central Science, 2025)
# Key:
# AhR-GFP = biological target: T1, AhR-GFP (Homo sapiens, UniProt P35869); test: MCF7 AhR-GFP.IRES.mCherry reporter, flow cytometry quantification of AhR protein levels; assay type: cell-based; conditions: 5 μM, 5 h
# T1 construct: host or cells: MCF7, lentiviral transduction
# Description: Figure 6 Bifunctional AhR probes and AhR reporter in MCF7 cells. (a) Synthetic access to the conjugatable AhR ligand 5m. (b) Structure, yield, and EC50 value of the model amide 12a and MD simulation of AhR with 12a (last snapshot). (c) PROTAC-like compound 12b and dual probes 12c–d. Reaction conditions: (a) 5m (1 equiv), amine (1 equiv), HATU, DIPEA, DMF, rt, 24 h, Ar atm; (b) 5m (2 equiv), diamine (1 equiv), HATU, DIPEA, DMF, rt, 24 h, Ar atm. (d) General setup of the reporter system for quantifying AhR protein levels. (e) The population of MCF7 reporter cells (MCF7 AhR-GFP.IRES.mCherry) gated by flow cytometry and used for quantification of AhR. […] Values represent the ratio of the geometric mean of GFP and mCherry values in the gated population. (g) Change in protein levels relative to vehicle treatment (DMSO) in MCF7 cells treated with 12b at 10 μM for 5 h quantified by TMT labeling and LC/MS analysis versus p-Value. TEXT PRINTED IN THE PICTURE: (b) 12a: EC50 = 0.40 μM […]
# To test the effect of these compounds on AhR abundance, we established a cellular reporter in the breast cancer cell line MCF7. AhR in this case is fused to GFP bearing an independently translated mCherry on the same transcript to allow correction for general transcriptional interference of treatments (Figure 6d,e). […]
# [1] = Solubility in the growing media during cytotoxicity testing; assay type: physicochemical; conditions: concentration of 100 µM
# Description: (§1) A phosphatidylserine exposure was used to determine cell viability. Cells were washed with PBS, pelleted, and then incubated with annexin binding buffer containing Annexin V-APC (Life Technologies) for 15 min in the dark. Then, samples were analyzed by flow cytometry using FACSCanto II and FACSDiva (BD Biosciences, Franklin Lakes, NJ, USA). Data represents the percentage of non - apoptotic cells (Ann -APC-).
# (§2) The cytotoxicity of a selection of the synthesized compounds was assessed after 24 hours of treatment in two human cell lines, Jurkat and HEK293T, coming from either tumoral T-cell lymphocytes or non-tumoral embryonic kidney fibroblasts, respectively. […]
# (§3) the pro-apoptotic activity was not significant below 10 µM for most compounds in both cell lines, except for 5i, 5k and 5l in both cell lines, as well as 9a in Jurkat and 5e HEK293T cells (Figure S35A-B).
# (§4) Moreover, the cytotoxicity of compounds 4d, 5b, 5h, 8, 10, and 12d at a higher concentration (100 µM) was assessed in both cell lines, Jurkat and HEK293T. The cytotoxicity of compounds 5b, 5h, and 12d could not be properly tested as the compounds were not soluble […]
# (§5) effects observed for compound 4d in Jurkat cells and compound 8 in HEK293T cells (Figure S35C).
# (§6) Figure S35. A) Jurkat and B) HEK293T cells were treated with 1 and 10 µM doses of the corresponding compound for 24 hours. Indicated doses of fluorizoline were used as a positive control of cell death. C) Jurkat and HEK293T cells were treated with 100 µM of the corresponding compound for 24 hours. Viability was measured by flow cytometry, and it is expressed as the mean ± SEM (n = 3) of the percentage of non -apoptotic cells (Ann-APC-). * p < 0.05, ** p < 0.01 *** p < […]
# (§7) (1 picture or pasted object on this page, not shown here)
# Jurkat cells = test: Cell viability (Annexin V-APC, flow cytometry) in Jurkat cells; assay type: cell-based; conditions: 24 h
# Description: as §1, §2, §3, §4, §5, §6, §7
# HEK293T cells = test: Cell viability (Annexin V-APC, flow cytometry) in HEK293T cells; assay type: cell-based; conditions: 24 h
# Description: as §1, §2, §3, §4, §5, §6, §7
# T1 sequence (P35869 11-848): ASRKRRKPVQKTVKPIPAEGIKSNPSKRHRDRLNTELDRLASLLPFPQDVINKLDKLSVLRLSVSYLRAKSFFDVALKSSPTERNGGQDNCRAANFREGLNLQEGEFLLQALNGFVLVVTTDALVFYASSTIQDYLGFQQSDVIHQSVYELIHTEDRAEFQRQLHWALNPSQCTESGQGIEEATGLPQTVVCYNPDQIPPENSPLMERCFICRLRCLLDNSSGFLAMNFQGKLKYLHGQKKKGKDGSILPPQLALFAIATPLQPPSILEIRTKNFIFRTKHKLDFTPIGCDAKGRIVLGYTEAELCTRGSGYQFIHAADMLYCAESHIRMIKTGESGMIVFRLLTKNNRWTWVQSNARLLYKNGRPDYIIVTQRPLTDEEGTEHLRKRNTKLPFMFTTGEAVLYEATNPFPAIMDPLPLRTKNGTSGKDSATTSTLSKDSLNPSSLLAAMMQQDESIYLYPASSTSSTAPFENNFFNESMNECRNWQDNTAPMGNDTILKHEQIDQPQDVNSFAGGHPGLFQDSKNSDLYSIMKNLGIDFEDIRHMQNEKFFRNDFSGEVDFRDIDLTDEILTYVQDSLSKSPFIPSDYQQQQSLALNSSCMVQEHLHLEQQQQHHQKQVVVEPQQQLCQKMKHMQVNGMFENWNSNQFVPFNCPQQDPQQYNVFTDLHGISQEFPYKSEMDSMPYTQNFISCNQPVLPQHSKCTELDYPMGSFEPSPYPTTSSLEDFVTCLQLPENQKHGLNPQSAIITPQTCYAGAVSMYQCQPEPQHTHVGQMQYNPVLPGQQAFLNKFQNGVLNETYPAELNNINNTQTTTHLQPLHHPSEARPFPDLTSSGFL
# T1 sequence (P08238 whole entry partner): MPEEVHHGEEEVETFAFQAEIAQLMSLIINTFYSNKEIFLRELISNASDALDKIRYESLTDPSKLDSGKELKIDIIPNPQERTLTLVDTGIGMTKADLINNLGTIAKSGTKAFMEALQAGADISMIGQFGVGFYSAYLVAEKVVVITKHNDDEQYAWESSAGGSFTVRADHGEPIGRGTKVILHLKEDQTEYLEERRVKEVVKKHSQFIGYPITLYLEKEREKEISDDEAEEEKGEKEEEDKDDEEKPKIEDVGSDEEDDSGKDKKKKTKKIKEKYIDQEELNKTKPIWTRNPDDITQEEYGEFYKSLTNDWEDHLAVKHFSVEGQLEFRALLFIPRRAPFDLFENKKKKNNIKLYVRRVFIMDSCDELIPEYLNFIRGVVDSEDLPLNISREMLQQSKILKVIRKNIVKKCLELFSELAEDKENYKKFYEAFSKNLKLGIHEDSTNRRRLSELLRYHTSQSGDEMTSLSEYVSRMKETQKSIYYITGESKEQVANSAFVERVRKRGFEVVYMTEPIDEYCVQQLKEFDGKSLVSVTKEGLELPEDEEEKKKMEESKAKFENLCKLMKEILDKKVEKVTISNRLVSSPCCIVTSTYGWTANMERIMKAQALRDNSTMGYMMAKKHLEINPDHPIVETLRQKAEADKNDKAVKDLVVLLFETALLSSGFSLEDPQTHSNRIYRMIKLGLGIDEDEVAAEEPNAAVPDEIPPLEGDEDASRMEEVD
# T1 sequence (O00170 whole entry partner): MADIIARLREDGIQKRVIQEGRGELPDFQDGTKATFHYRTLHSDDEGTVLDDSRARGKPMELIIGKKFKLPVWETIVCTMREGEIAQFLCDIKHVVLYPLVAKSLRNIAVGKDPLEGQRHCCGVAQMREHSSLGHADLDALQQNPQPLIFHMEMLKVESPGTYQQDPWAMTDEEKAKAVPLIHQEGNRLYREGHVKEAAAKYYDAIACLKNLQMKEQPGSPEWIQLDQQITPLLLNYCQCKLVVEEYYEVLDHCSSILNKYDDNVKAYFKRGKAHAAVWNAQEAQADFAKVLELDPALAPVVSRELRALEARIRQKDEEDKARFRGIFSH
smiles,measurement,setting,value
Cc1[nH]c2ccccc2c1-c1c2[nH]c3ccccc3c2cc2[nH]c3ccccc3c12 [5e],AhR degradation in reporter system,AhR-GFP,pronounced AhR degradation
"CCOc1c2[nH]c3ccccc3c2cc2[nH]c3ccccc3c12 [compound 8, 6-ethoxy-ICZ]",solubility in the growing media,[1],slight turbidity
same,cytotoxicity / pro-apoptotic activity at 100 µM,Jurkat cells,minimal pro-apoptotic activity
same,cytotoxicity / pro-apoptotic activity at 100 µM,HEK293T cells,slight cytotoxic effects
